Experiment [1] can be described thus: viability inhibitors of stage V gametocytes – luminescence, dose response (AID 1117278).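 Also: gametocytes exposed to compound for 24 hours.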 The experiment is classed as functional, cell-based.
Experiment [2] can be described thus: viability loss in human Jurkat cells – cell-based, luminescence, cytotoxicity control for P. falciparum gametocyte viability project, dose response (AID 1117277).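 Also: potency reflects loss of cellular ATP meaning fewer viable cells.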 It is filed as functional.
Experiment [3] has as its system H9c2. As to the kind of experiment: cells. It is filed as functional, cell-based. The conditions noted are these: Rattus norvegicus, H9c2, Myocardium.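 Also: confirmatory concentration-response retest of ultra-high-throughput screening hits for modulation of myocardial damage; cell death induced by hydrogen peroxide oxidative stress; compound pretreatment for 60 min then peroxide exposure for 2 h; potency is for protecting the cells against peroxide damage rather than for killing them.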
Experiment [4] has as its target Mitogen-activated protein kinase 10 (Homo sapiens, UniProt P53779). As to the kind of experiment: Dose response biochemical screening assay for inhibitors of c-Jun N-Terminal Kinase 3 (JNK3). [Related pubchem assays: 746 ].
The nature of experiment [5]: microbe, parasite or virus in culture. It is filed as functional. The settings on record: Mycobacterium tuberculosis.
The nature of experiment [6]: viability loss of HPDE-C7K cells – cell-based, fluorescence, HTS, primary screen (AID 431). It is filed as functional. The settings on record: Homo sapiens.
The nature of experiment [7]: HPDE-C7 pancreatic duct cell viability loss – fluorescence, HTS (AID 430). The experiment is classed as functional, cell-based. The conditions noted are these: Homo sapiens.
Experiment [8] concerns the target T1, Protein skinhead-1 (Caenorhabditis elegans, UniProt P34707).
T1 sequence (P34707 whole entry): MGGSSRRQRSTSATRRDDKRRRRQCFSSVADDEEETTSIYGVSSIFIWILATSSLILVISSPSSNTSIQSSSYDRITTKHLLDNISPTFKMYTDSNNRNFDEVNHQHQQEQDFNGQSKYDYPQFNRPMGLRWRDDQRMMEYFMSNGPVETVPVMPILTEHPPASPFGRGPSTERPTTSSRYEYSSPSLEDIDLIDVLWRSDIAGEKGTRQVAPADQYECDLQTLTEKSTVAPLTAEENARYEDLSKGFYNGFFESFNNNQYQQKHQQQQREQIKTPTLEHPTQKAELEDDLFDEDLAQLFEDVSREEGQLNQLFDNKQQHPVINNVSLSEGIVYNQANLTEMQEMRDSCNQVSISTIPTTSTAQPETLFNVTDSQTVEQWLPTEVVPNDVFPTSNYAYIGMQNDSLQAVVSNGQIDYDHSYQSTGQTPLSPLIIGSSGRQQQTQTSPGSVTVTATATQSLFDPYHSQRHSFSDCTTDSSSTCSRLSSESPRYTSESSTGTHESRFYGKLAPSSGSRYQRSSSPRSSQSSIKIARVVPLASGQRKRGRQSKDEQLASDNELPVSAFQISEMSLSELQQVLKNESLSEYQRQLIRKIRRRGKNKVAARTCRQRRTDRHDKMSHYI
It is filed as functional.

A short description of experiment [9]: NIH3T3 cell viability loss – ATP luminescence, mouse fibroblasts, counter-screen, dose response (AID 2010).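 Also: cells exposed to compound for about 90 hours before reading.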 It is filed as functional, cell-based.
A short description of experiment [10]: Trypanosoma cruzi growth suppression in host cells – NIH3T3 host cells, beta-gal luminescence, confirmation (AID 2044).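 Also: intracellular parasites grown in NIH/3T3 mouse fibroblasts as host cells; luminescent beta-galactosidase reporter signal from transgenic T. cruzi replicating inside host cells; inhibitors lower the luminescence signal.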 The experiment is classed as functional, cell-based.
A short description of experiment [11]: general mammalian cell viability loss – inhibitor set, cherry-pick, set 2, cytotoxicity control for miR-122 modulator project, dose response (AID 720697). It is filed as functional, cell-based.
Experiment [12] is described as follows: Luminescence Cell-Based Dose Retest to Confirm Inhibitors of Cancer Stem Cells. [Related pubchem assays (depositor defined):AID2717, AID2721]. The experiment is classed as functional. The conditions noted are these: Homo sapiens.
Experiment [13] concerns the target T2, Histone-lysine N-methyltransferase NSD2 (Homo sapiens, UniProt O96028).
T2 sequence (O96028 whole entry): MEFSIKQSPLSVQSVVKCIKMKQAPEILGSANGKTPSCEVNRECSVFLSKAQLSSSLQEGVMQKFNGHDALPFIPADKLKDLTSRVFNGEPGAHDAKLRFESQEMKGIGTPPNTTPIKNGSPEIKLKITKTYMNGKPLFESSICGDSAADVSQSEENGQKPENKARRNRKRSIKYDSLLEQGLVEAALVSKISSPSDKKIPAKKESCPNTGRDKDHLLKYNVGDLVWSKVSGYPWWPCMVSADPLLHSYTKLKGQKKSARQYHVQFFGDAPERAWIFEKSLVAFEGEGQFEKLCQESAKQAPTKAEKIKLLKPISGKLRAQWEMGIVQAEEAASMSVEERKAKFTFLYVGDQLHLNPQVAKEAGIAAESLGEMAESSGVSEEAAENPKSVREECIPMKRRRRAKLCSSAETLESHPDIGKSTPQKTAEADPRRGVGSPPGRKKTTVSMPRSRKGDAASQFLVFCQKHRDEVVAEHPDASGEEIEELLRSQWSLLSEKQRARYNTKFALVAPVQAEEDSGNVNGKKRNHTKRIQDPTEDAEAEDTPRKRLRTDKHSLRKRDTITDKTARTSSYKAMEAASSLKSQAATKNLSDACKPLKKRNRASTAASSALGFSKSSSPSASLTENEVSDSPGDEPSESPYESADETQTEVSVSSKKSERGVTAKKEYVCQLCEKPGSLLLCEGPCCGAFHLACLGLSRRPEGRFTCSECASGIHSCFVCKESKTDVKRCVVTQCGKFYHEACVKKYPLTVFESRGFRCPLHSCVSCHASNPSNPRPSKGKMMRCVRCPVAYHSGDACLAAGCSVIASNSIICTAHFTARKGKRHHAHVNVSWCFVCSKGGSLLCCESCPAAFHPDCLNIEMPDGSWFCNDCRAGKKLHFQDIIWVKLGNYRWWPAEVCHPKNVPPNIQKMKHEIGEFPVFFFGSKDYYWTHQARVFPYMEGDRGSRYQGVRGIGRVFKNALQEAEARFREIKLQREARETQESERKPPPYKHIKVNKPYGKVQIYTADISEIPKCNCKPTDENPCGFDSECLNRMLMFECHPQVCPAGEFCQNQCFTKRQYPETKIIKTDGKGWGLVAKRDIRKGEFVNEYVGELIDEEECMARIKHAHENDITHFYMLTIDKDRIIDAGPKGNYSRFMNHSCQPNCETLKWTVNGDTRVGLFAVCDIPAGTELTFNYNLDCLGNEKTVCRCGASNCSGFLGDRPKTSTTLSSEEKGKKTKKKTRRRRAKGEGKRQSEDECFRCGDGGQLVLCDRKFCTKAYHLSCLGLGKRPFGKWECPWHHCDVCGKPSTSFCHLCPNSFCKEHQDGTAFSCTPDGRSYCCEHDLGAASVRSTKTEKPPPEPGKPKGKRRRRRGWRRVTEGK
The experiment is classed as biochemical.

Experiment [14] addresses Peroxisome proliferator-activated receptor gamma/Nuclear receptor coactivator 2 (Homo sapiens, UniProt P37231). It is filed as functional.
The target of experiment [15] is Peroxisome proliferator-activated receptor gamma/Nuclear receptor coactivator 1 (Homo sapiens, UniProt P37231). The experiment is classed as functional.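 Also: agonist potency as compounds enhance coactivator SRC-1 recruitment to PPARgamma.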
In experiment [16] the target is Peroxisome proliferator-activated receptor gamma/Nuclear receptor coactivator 3 (Homo sapiens, UniProt P37231). The experiment is classed as functional.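 Also: agonist potency for raising coactivator recruitment to the receptor.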
Experiment [17] in a line: growth inhibition of PfATP4-mutant resistant parasites – NITD609-resistant line, SYBR Green, dry powder, dose response (AID 1159571).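 Also: parasites synchronized at ring stage by sorbitol before testing.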 It is filed as functional, cell-based.
The nature of experiment [18]: growth inhibition of yeast DHODH-expressing 3D7 parasites – SYBR Green, dry powder samples, dose response (AID 1159570).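 Also: parasite growth measured after 72 hours of compound exposure.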 It is filed as functional, cell-based.
A short description of experiment [19]: Dd2 malaria parasite growth inhibition potency – SYBR Green, dry powder samples, dose response (AID 1159566).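 Also: potency for growth inhibition with lower SYBR green DNA signal.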 The experiment is classed as functional, cell-based.
Experiment [20] can be described thus: P. falciparum Dd2 growth inhibitors, dose response, SYBR Green, cherry-picked samples (AID 1159567). The experiment is classed as functional, cell-based.
The target in experiment [21] is Glyceraldehyde-3-phosphate dehydrogenase (Homo sapiens, UniProt P04406).
In experiment [22] the test system is HT-1080. As to the kind of experiment: HT1080 cell viability loss – fluorescence readout (AID 620). The experiment is classed as functional, cell-based. The conditions noted are these: Homo sapiens.
Experiment [23] has as its target Luciferin 4-monooxygenase (Photinus pyralis, UniProt P08659). Briefly: Counter Screen for Luciferase-based Assay Positives. [Related pubchem assays: 620, 618, 411 ]. (In general: Counterscreens check selectivity or assay interference.)

Here are results for 20 compounds from ChEMBL document CHEMBL1201862, “PubChem BioAssay data set” (2004).

One may read the IC50 as the midpoint of a concentration-inhibition curve. The term EC50 denotes the concentration at which the effect is half-maximal. The term AC50 denotes the midpoint of the concentration-response curve, whichever way the signal moves.

SMILES strings stand for the structures. The source made the active and inactive calls.

Sequence of Peroxisome proliferator-activated receptor gamma/Nuclear receptor coactivator 3 (P37231 whole entry): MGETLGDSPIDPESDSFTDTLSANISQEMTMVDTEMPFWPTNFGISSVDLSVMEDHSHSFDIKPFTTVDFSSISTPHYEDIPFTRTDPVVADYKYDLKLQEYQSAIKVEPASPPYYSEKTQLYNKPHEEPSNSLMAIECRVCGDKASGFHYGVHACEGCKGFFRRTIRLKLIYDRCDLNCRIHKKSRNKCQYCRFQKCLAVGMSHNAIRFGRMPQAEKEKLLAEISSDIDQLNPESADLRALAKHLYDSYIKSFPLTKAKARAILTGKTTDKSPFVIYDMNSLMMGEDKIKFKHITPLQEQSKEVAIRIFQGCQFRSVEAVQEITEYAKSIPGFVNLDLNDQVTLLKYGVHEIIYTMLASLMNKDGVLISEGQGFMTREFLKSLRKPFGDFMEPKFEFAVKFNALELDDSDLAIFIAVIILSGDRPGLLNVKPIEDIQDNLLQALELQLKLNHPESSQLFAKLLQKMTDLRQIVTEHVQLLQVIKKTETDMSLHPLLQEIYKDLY
Sequence of Peroxisome proliferator-activated receptor gamma/Nuclear receptor coactivator 3 (Q9Y6Q9 whole entry, further chain): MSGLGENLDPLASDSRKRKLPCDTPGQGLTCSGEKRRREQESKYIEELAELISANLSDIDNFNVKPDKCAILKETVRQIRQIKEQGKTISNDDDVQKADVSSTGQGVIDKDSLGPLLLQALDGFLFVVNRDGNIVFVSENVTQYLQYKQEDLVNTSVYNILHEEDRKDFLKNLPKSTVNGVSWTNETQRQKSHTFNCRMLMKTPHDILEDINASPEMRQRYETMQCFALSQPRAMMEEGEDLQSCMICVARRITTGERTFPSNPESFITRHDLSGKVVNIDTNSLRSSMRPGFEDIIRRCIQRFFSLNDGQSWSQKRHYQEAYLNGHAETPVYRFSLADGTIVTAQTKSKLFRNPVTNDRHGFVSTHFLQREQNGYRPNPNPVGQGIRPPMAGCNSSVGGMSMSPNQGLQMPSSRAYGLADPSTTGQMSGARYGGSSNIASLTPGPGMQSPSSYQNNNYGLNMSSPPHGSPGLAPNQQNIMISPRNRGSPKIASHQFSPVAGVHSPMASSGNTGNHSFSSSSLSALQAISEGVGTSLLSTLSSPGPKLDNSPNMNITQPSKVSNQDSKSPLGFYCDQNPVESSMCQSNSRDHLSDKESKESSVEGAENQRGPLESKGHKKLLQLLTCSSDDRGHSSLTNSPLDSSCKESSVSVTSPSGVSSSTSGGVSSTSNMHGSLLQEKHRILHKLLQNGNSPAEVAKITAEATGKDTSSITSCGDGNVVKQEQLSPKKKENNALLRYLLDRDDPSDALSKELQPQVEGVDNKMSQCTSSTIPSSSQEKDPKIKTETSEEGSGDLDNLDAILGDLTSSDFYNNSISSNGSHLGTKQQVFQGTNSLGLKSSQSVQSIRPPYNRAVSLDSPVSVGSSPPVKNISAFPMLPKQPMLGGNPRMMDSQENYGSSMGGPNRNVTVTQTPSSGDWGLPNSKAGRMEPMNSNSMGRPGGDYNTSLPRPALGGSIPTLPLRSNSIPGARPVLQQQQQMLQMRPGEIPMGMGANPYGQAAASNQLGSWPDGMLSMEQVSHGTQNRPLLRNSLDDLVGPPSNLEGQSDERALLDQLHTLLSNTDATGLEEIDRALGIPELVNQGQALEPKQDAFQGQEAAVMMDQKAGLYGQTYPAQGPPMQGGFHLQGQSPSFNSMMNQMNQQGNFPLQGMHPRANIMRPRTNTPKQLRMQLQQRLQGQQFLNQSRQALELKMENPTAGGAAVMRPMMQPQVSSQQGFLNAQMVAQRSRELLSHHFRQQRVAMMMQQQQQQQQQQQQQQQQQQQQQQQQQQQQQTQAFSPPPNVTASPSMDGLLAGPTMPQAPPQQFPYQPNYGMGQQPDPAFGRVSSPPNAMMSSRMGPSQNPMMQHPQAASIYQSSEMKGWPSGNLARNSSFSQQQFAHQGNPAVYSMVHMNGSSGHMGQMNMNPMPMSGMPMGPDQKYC
Sequence of Peroxisome proliferator-activated receptor gamma/Nuclear receptor coactivator 1 (P37231 whole entry): as the sequence (P37231 whole entry) above
Sequence of Peroxisome proliferator-activated receptor gamma/Nuclear receptor coactivator 1 (Q15788 whole entry, further chain): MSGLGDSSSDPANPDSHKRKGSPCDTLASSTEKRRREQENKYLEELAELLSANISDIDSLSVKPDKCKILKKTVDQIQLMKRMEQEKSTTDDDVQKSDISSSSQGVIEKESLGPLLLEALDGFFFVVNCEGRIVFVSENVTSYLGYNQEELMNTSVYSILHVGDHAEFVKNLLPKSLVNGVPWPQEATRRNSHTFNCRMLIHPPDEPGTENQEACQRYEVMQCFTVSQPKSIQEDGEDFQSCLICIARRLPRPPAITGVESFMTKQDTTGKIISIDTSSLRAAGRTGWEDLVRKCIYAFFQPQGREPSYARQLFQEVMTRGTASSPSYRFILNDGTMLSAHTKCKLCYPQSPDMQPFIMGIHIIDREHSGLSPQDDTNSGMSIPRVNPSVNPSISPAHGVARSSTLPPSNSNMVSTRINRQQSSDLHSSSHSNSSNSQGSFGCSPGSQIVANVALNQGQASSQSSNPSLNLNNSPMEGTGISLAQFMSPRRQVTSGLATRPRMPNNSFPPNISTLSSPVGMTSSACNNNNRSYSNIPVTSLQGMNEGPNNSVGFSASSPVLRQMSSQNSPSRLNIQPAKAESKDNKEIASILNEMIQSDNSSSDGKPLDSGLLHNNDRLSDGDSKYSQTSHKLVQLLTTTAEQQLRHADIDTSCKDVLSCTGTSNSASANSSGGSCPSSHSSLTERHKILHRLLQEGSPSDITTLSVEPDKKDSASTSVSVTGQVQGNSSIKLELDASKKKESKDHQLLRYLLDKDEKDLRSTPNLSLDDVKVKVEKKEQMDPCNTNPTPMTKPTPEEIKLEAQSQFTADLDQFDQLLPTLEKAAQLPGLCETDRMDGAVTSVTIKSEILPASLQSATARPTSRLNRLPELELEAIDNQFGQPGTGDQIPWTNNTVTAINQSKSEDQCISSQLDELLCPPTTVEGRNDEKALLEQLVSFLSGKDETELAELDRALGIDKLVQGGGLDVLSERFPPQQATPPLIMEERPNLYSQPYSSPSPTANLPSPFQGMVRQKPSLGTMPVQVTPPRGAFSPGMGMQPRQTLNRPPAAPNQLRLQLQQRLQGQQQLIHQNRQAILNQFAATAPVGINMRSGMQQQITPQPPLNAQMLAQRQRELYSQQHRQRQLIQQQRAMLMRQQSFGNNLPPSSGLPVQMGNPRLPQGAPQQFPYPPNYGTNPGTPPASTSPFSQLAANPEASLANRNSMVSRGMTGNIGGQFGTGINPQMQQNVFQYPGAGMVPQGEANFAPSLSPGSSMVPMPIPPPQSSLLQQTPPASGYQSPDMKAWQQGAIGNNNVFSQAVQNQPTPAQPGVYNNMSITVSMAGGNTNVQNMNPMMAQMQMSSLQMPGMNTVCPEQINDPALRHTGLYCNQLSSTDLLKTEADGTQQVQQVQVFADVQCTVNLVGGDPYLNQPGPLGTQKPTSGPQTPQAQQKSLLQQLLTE
Sequence of Mitogen-activated protein kinase 10 (P53779 whole entry): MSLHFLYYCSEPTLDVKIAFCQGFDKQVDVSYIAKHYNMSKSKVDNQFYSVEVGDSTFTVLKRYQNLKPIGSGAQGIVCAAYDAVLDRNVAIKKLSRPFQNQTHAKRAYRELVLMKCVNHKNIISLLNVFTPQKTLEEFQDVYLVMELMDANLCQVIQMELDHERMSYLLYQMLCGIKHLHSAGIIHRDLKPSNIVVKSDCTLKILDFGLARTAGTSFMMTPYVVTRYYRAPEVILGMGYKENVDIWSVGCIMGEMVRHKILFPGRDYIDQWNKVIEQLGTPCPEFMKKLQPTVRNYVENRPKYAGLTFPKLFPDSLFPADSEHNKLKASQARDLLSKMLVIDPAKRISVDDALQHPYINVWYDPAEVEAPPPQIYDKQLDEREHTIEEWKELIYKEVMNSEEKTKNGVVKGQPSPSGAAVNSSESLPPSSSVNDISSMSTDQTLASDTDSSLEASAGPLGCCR
Sequence of Luciferin 4-monooxygenase (P08659 whole entry): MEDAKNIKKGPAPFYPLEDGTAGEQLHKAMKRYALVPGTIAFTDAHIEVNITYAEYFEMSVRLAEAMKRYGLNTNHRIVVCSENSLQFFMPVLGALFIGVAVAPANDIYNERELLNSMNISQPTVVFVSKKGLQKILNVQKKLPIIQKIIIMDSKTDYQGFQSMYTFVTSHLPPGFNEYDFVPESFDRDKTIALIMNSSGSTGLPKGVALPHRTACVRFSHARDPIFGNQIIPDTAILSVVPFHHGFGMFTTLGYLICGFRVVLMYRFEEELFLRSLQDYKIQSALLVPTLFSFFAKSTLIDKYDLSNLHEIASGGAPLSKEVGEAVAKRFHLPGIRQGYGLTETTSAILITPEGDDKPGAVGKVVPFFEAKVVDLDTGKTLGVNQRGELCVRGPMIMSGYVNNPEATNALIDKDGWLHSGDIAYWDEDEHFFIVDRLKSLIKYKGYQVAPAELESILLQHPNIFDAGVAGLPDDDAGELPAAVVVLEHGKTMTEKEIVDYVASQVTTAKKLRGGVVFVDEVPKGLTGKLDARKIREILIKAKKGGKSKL

In the case of `Cc1ccc(NC(=O)C2CCN(c3nc(C)cc(C)n3)CC2)cc1`, the values for the IC50 in [1] and in [2] were > 109 µM (inactive) and > 83.3 µM (inactive), respectively.

`COc1ccc(OC)c(Nc2nc(N)nc(-c3cc4ccccc4o3)n2)c1`: the IC50 in experiment [3] is > 79 µM (inactive); in experiment [4], 47.8 µM (not active).

`CCn1c(C(C)NC(C)=O)nc2ccccc21` (configuration not stated): the IC50 in experiment [4] is > 93.1 µM (not active).

As to `O=C(Cc1c[nH]c2ccccc12)Nc1nccs1`, the IC50 was > 109 µM (inactive) in experiment [1] and > 83.3 µM (inactive) in experiment [2].

As to `COc1cccc(N2CCN(c3[nH]cnc4c5ccccc5nc3-4)CC2C)c1` (configuration not stated), the CC50 in [5] was 7.28 µM (active). For the same compound, the EC50 in experiment [6] is 3.01 µM (active); in [7], 3.33 µM (active).

Regarding `N=c1c2c(-c3ccccc3)c(-c3ccccc3)n(Cc3ccccc3)c2ncn1CCCO`, in [8], the IC50 was > 100 µM (inactive). For the same compound, the concentration giving a half-maximal response (EC50) is > 60 µM (inconclusive) in experiment [9] and 1.26 µM (active) in [10]. Also, the concentration at half-maximal activity (AC50) in [11] was 7.08 µM (active).

Regarding `CCCn1c(=S)[nH]c2cc(C(=O)N3CCc4ccccc4C3)ccc2c1=O`, the IC50 in [1] is > 109 µM (inactive); in [2], > 83.3 µM (inactive).

Regarding `O=C(CCCn1c(=O)[nH]c2cc(Cl)ccc2c1=O)NCCCN1CCCC1`, the values for the IC50 in [1] and in experiment [2] were > 109 µM (inactive) and > 83.3 µM (inactive), respectively.

Consider `CC(C)(C)c1nc(N2CCN(C(=O)c3ccco3)CC2)c2nnn(Cc3ccccc3Cl)c2n1`, for which the figures for the EC50 in [6] and in experiment [7] were 5.38 µM (active) and 4.47 µM (active), respectively. The AC50 in experiment [12] was 3.44 µM (active).

As to `CNCCCOc1cccc(OC(C)C)c1`, in experiment [13], the half-maximal activity concentration (AC50) is 17.3 µM (active).

For `CCN(CC)CCCNC(=O)c1ccc2c(SCC(=O)O)c3c(nc2c1)CCC3`, the EC50 in [14], in experiment [15] and in [16] was > 79.4 µM (not active) each time.

For the compound `COc1ccc(-c2c3c([nH]c(=S)c2C#N)CCC3)cc1`, the IC50 in experiment [4] was 17.6 µM (not active).

Take `Cc1ccccc1-n1c(S)nnc1-c1ccco1`: the concentration giving a half-maximal response (EC50) in experiment [14], in experiment [15] and in experiment [16] was > 79.4 µM (not active) throughout.

Turning to `C/C=C/c1ccc([C@H]2[C@@H](CO)N[C@@H]2CN(CC)C(=O)CN2CCOCC2)cc1`, in experiment [11], the AC50 was 47.6 µM (active).

For `CN(C)/C=N/C(=O)/C(C#N)=C1\CCc2ccccc2N1`, in experiment [4], the IC50 was > 93.1 µM (not active).

As for `COCCCNC(=O)c1c(N)n(/N=C/c2cccs2)c2nc3ccccc3nc12`, the concentration giving a half-maximal response (EC50) in [6] is > 20 µM (not active); in experiment [7] it was 9.78 µM (active).

In the case of `COc1ccc(C#Cc2ccc3c(c2)O[C@@H](CN(C)C(=O)Nc2cccc(OC)c2)[C@H](C)CN([C@H](C)CO)S3(=O)=O)cc1`, the AC50 in experiment [17] is 0.986 µM (active); in experiment [18], 0.799 µM (active); in experiment [19] it was 0.662 µM (active); in experiment [20] it was 1.5 µM (active).

`C[C@H](CO)N1C[C@H](C)[C@H](CN(C)S(=O)(=O)c2ccc(C#N)cc2)OCc2ccccc2-c2c(n(C)c3ccccc23)C1=O`: the AC50 in experiment [17] is 0.41 µM (active); in [18], 0.563 µM (active); in [19] it was 0.314 µM (active); in [20], 1.25 µM (active).

In the case of `COc1ccc(-c2cc3nnc(-c4ccccc4)nc3s2)cc1`, the 50% inhibitory concentration (IC50) in experiment [21] is recorded as > 100 µM (not active). The EC50 in experiment [22] was > 50 µM (not active); in [23], 0.27 µM (active).

Regarding `NC(N)=Nc1nc(CSCCC(N)=NS(N)(=O)=O)cs1` [FAMOTIDINE], the half-maximal effective concentration (EC50) in experiment [14], in experiment [15] and in [16] was > 79.4 µM (not active) each time.
